Experimental data from patent US9006139B2, “Active compound combinations” (Bayer Intellectual Property GmbH, priority 2009, dated 2015).
Like-named read-outs stand apart in the source and are kept apart here.

Legend:
Type in all cases: in vivo
[1] = tested on: Sphaerotheca fuliginea; test: Sphaerotheca test (cucumbers)/protective; details: Table C; for pest or weed control at 5 ppm: 5 ppm a.i.
Procedure: (§1) Solvent: 24.5 parts by weight of acetone
(§2) • 24.5 parts by weight of dimethylacetamide Emulsifier: 1 part by weight of alkylaryl polyglycol ether
To produce a suitable preparation of active compound, 1 part by weight of active compound is mixed with the stated amounts of solvent and emulsifier, and the concentrate is diluted with water to the desired concentration. To test for protect activity, young plants are sprayed with the preparation of active compound at the stated rate of application. After the spray coating has dried on, the plants are inoculated with an aqueous spore suspension of Sphaerotheca fuliginea. The plants are then placed in a greenhouse at approximately 23° C. and a relative atmospheric humidity of approximately 70%. The test is evaluated 7 days after the inoculation. 0% means an efficacy which corresponds to that of the control, while an efficacy of 100% means that no disease is observed.

[2] = tested on: Botrytis cinerea; test: Botrytis test (beans)/protective; details: Table F
Procedure: as §1, §2
To produce a suitable preparation of active compound, 1 part by weight of active compound is mixed with the stated amounts of solvent and emulsifier, and the concentrate is diluted with water to the desired concentration. To test for protective activity, young plants are sprayed with the preparation of active compound. After the spray coating has dried on, 2 small pieces of agar covered with growth of Botrytis cinerea are placed on each leaf. The inoculated plants are placed in a darkened chamber at 20° C. and a relative atmospheric humidity of 100%. 2 days after the inoculation, the size of the lesions on the leaves is evaluated. 0% means an efficacy which corresponds to that of the control, while an efficacy of 100% means that no disease is observed.

[3] = tested on: Alternaria solani; test: Alternaria test (tomatoes)/protective; details: Table E; for pest or weed control at 12.5 ppm: 12.5 ppm a.i.
Procedure: as §1, §2
(§3) To produce a suitable preparation of active compound, 1 part by weight of active compound is mixed with the stated amounts of solvent and emulsifier, and the concentrate is diluted with water to the desired concentration. To test for protective activity, young plants are sprayed with the preparation of active compound at the stated rate of application. After the spray coating has dried on, the plants are inoculated with an aqueous spore suspension of Alternaria solani. The plants are then placed in an incubation cabinet at approximately 20° C. and a relative atmospheric humidity of 100%. The test is evaluated 3 days after the inoculation. 0% means an efficacy which corresponds to that of the control while an efficacy of 100% means that no disease is observed.

[4] = tested on: Venturia inaequalis; test: Venturia test (apples)/protective; details: Table D, test 1
Procedure: as §1, §2
as §3, with “conidia” for “spore”, “the causal agent of apple scab (Venturia inaequalis) and” for “Alternaria solani. The plants are”, “remain for 1 day” for “placed”, “The plants are then placed in a greenhouse at approximately 21° C. and a relative atmospheric humidity of approximately 90%. The” for “The”, “10” for “3”, “control,” for “control”

[5] = tested on: Phytophthora infestans; test: whole plant or invertebrate; details: for Efficacy in % found: Table A
[6] = Botrytis cinerea, 48 h, test 1, 25 ppm a.i., read-out: Efficacy in % found
[7] = Podosphaera fuliginea, 168 h, test 4, read-out: Efficacy in % found
[8] = Alternaria solani, 72 h, test 1, read-out: Efficacy in % found
[9] = Botrytis cinerea, 48 h, test 2, 50 ppm a.i., read-out: Efficacy in % found

For `Fc1ccc([C@]2(Cn3cncn3)O[C@H]2c2ccccc2Cl)cc1` (racemic) [(1.12), epoxiconazole], the pest or weed control at 0.5 ppm ([1]; Podosphaera fuliginea, 168 h, test 1, 0.5 ppm a.i., read-out: Efficacy in % found) was 30% and the pest or weed control at 25 ppm [2, 6] was 49%.
`CC(C)(C)C(O)C(Oc1ccc(-c2ccccc2)cc1)n1cncn1` (centres unmarked) [(1.3), bitertanol] was tested, and the pest or weed control at 5 ppm [1, 7] was 71%.
Compound `CC(C1CC1)C(O)(Cn1cncn1)c1ccc(Cl)cc1` (centres unmarked) [(1.5), cyproconazole] has a pest or weed control at 0.5 ppm ([3]; Alternaria solani, 72 h, test 2, 0.5 ppm a.i., read-out: Efficacy in % found) of 0%.
`CC1COC(Cn2cncn2)(c2ccc(Oc3ccc(Cl)cc3)cc2Cl)O1` (centres unmarked) [(1.7), difenoconazole] was tested, and the pest or weed control at 5 ppm [1, 7] was 38%.
With `CC1(C(=O)Nc2ccc(O)c(Cl)c2Cl)CCCCC1` [(1.16), fenhexamid] the “Efficacy in % found” value ([4]; 12.5 ppm a.i.) was 0% and the pest or weed control at 12.5 ppm [3, 8] was 0%.
For `CCCN(CC)CC1COC2(CCC(C(C)(C)C)CC2)O1` (centres unmarked) [(1.46), spiroxamine], the pest or weed control at 100 ppm ([1]; Podosphaera fuliginea, 168 h, test 3, 100 ppm a.i., read-out: Efficacy in % found) was 10%.
`CC(C)(C)C(=O)C(Oc1ccc(Cl)cc1)n1cncn1` (centres unmarked) [(1.50), triadimefon] was tested, and the pest or weed control at 5 ppm [1, 7] was 19%.
`Cn1cc(C(=O)Nc2ccccc2-c2ccccc2C(F)(F)F)c(C(F)(F)F)n1` [(2.26), 1-methyl-3-(trifluoromethyl)-N-[2′-(trifluoromethyl)biphenyl-2-yl]-1H-pyrazole-4-carboxamide] was tested, and the “Efficacy in % found” value ([4]; 1 ppm a.i.) was 54% and the pest or weed control at 25 ppm [2, 6] was 89%.
In the case of `CO/C=C(/C(=O)OC)c1ccccc1Oc1cc(Oc2ccccc2C#N)ncn1` [(3.2), azoxystrobin], the “Efficacy in % found” value ([5]; test 1, 1 ppm a.i.) is reported as 23%, the “Efficacy in % found” value ([3]; test 1, 0.5 ppm a.i.) is reported as 40% and the “Efficacy in % found” value ([2]; test 1, 25 ppm a.i.) is reported as 0%.
`CSC1=N[C@@](C)(c2ccccc2)C(=O)N1Nc1ccccc1` [(3.7), fenamidone] gave a pest or weed control at 1 ppm ([5]; Phytophthora infestans, 72 h, read-out: Efficacy in % found, Table A, test 1, 1 ppm a.i.) of 62%.
`CCCCNC(=O)n1c(NC(=O)OC)nc2ccccc21` [(4.1), benomyl] showed a pest or weed control at 2.5 ppm ([2]; Botrytis cinerea, 48 h, test 3, 2.5 ppm a.i., read-out: Efficacy in % found) of 8%.
With `CCOc1ccc(NC(=O)OC(C)C)cc1OCC` [(4.3), diethofencarb] the pest or weed control at 50 ppm ([2]; Botrytis cinerea, 48 h, test 3, 50 ppm a.i., read-out: Efficacy in % found) was 29%.
Compound `O=C(Nc1ccccc1)N(Cc1ccc(Cl)cc1)C1CCCC1` [(4.6), pencycuron] has a pest or weed control at 50 ppm [2, 9] of 0%.
With `COC(=O)NC(=S)Nc1ccccc1NC(=S)NC(=O)OC` [(4.8), thiophanate-methyl] the pest or weed control at 250 ppm ([5]; Phytophthora infestans, 72 h, read-out: Efficacy in % found, Table A, test 6, 250 ppm a.i.) was 29% and the pest or weed control at 12.5 ppm ([2]; Botrytis cinerea, 48 h, test 3, 12.5 ppm a.i., read-out: Efficacy in % found) was 84%.
`O=C1C2CC=CCC2C(=O)N1SC(Cl)(Cl)Cl` (centres unmarked) [(5.3), captan] showed a pest or weed control at 50 ppm ([5]; Phytophthora infestans, 72 h, read-out: Efficacy in % found, Table A, test 6, 50 ppm a.i.) of 60%.
`N#Cc1c(Cl)c(Cl)c(Cl)c(C#N)c1Cl` [(5.4), chlorothalonil] gave a pest or weed control at 2.5 ppm ([5]; Phytophthora infestans, 72 h, read-out: Efficacy in % found, Table A, test 5, 2.5 ppm a.i.) of 50%.
`N#Cc1sc2c(=O)c3ccccc3c(=O)c=2sc1C#N` [(5.6), dithianon] was tested, and the pest or weed control at 25 ppm ([5]; Phytophthora infestans, 72 h, read-out: Efficacy in % found, Table A, test 6, 25 ppm a.i.) was 54%.
`O=C1c2ccccc2C(=O)N1SC(Cl)(Cl)Cl` [(5.9), folpet] was tested, and the pest or weed control at 50 ppm ([5]; Phytophthora infestans, 72 h, read-out: Efficacy in % found, Table A, test 3, 50 ppm a.i.) was 32%.
With `[Cu+2].[OH-].[OH-]` [(5.16), copper hydroxide] the “Efficacy in % found” value ([5]; test 6, 25 ppm a.i.) was 43%.
With `Cc1cc(C)nc(Nc2ccccc2)n1` [(7.7), pyrimethanil] the pest or weed control at 50 ppm [2, 9] was 0%.
`CC(C)[C@H](NC(=O)O)C(=O)N[C@H](C)c1nc2ccc(F)cc2s1` [(9.1), benthiavalicarb] was tested, and the “Efficacy in % found” value ([5]; test 1, 0.25 ppm a.i.) was 12%.
`COc1ccc(C(=CC(=O)N2CCOCC2)c2ccc(Cl)cc2)cc1OC` [(9.2), dimethomorph] showed a pest or weed control at 0.5 ppm ([5]; Phytophthora infestans, 72 h, read-out: Efficacy in % found, Table A, test 2, 0.5 ppm a.i.) of 28%.
`Cc1ccc(C(C)NC(=O)[C@@H](NC(=O)OC(C)C)C(C)C)cc1` (some centres unmarked) [(9.4), iprovalicarb] was tested, and the “Efficacy in % found” value ([5]; test 7, 1.25 ppm a.i.) was 42%.
With `COC(=O)CC(NC(=O)[C@@H](NC(=O)OC(C)C)C(C)C)c1ccc(Cl)cc1` (some centres unmarked) [(9.10), valifenalate] the “Efficacy in % found” value ([5]; test 2, 0.5 ppm a.i.) was 58%.
`CC(C)NC(=O)N1CC(=O)N(c2cc(Cl)cc(Cl)c2)C1=O` [(10.7), iprodione] showed a pest or weed control at 12.5 ppm [3, 8] of 35% and a pest or weed control at 25 ppm [2, 6] of 0%.
In the case of `COC(=O)C(C)N(C(=O)Cc1ccccc1)c1c(C)cccc1C` (centres unmarked) [(12.1), benalaxyl], the pest or weed control at 1 ppm ([5]; Phytophthora infestans, 72 h, read-out: Efficacy in % found, Table A, test 4, 1 ppm a.i.) is reported as 26%.
For `COC(=O)[C@@H](C)N(C(=O)Cc1ccccc1)c1c(C)cccc1C` [(12.2), benalaxyl-M (kiralaxyl)], the “Efficacy in % found” value ([5]; test 4, 1 ppm a.i.) was 19%.
Work on `N#Cc1c[nH]cc1-c1cccc(Cl)c1Cl` [(13.1), fenpiclonil] yielded a pest or weed control at 10 ppm ([2]; Botrytis cinerea, 48 h, test 2, 10 ppm a.i., read-out: Efficacy in % found) of 0%.
For `N#Cc1c[nH]cc1-c1cccc2c1OC(F)(F)O2` [(13.2), fludioxonil], the pest or weed control at 5 ppm ([2]; Botrytis cinerea, 48 h, test 2, 5 ppm a.i., read-out: Efficacy in % found) was 84%.
With `Fc1ccc(Oc2ccnc3cc(Cl)cc(Cl)c23)cc1` [(13.3), quinoxyfen] the pest or weed control at 5 ppm ([1]; Podosphaera fuliginea, 168 h, test 3, read-out: Efficacy in % found) was 37%.
In the case of `CCCCCCCCc1c(CC)nc2ncnn2c1N` [(15.1), ametoctradin], the “Efficacy in % found” value ([5]; test 2, 2.5 ppm a.i.) is reported as 73%.
In the case of `O=C(NCc1ncc(C(F)(F)F)cc1Cl)c1c(Cl)cccc1Cl` [(15.17), fluopicolide], the “Efficacy in % found” value ([5]; test 1, 1 ppm a.i.) is reported as 0%.
For `CCO[PH](=O)O` [(15.20), fosetyl-Al], the “Efficacy in % found” value ([5]; test 7, 62.5 ppm a.i.) was 53%.
For `N#Cc1ccccc1NC(=O)c1snc(Cl)c1Cl` [(15.22), isotianil], the “Efficacy in % found” value ([2]; test 2, 50 ppm a.i.) was 0%.
With `COc1cc(C)c(C(=O)c2c(OC)ccc(Br)c2C)c(OC)c1OC` [(15.25), metrafenone] the pest or weed control at 10 ppm ([1]; Podosphaera fuliginea, 168 h, test 2, 10 ppm a.i., read-out: Efficacy in % found) was 21%.
`COc1ccccc1N1CCS/C1=C(/C#N)Sc1cc(C(F)(F)F)ccc1F` [(15.57), flutianil] was tested, and the “Efficacy in % found” value ([1]; test 2, 0.5 ppm a.i.) was 48%.
For `CCCCCOC(=O)Nc1cccc(CON=C(c2ccccc2)c2nnnn2C)n1` [(15.66), pentyl {6-[({[(1-methyl-1H-tetrazol-5-yl)(phenyl)methylidene]amino}oxy)-methyl]pyridin-2-yl}carbamate], the pest or weed control at 0.5 ppm ([5]; Phytophthora infestans, 72 h, read-out: Efficacy in % found, Table A, test 5, 0.5 ppm a.i.) was 30%.
Work on `Cc1cc(C(F)(F)F)nn1CC(=O)N1CCC(c2nc(C3=NO[C@@H](c4c(F)cccc4F)C3)cs2)CC1` [(15.88), 1-(4-{4-[(5R)-5-(2,6-difluorophenyl)-4,5-dihydro-1,2-oxazol-3-yl]-1,3-thiazol-2-yl}piperidin-1-yl)-2-[5-methyl-3-(trifluoromethyl)-1H-pyrazol-1-yl]ethanone] yielded a pest or weed control at 0.025 ppm ([5]; Phytophthora infestans, 72 h, read-out: Efficacy in % found, Table A, test 5, 0.025 ppm a.i.) of 50%.
For mancozeb [(5.19)], the “Efficacy in % found” value ([5]; test 3, 50 ppm a.i.) was 53%.
With metalaxyl-M (mefenoxam) [(12.10)] the “Efficacy in % found” value ([5]; test 7, 1.25 ppm a.i.) was 13%.
For metiram [(5.21)], the “Efficacy in % found” value ([5]; test 3, 50 ppm a.i.) was 17%.
“phosphorous acid and its salts [(15.62)]” was tested, and the “Efficacy in % found” value ([5]; test 6, 500 ppm a.i.) was 54%.
With propineb [(5.23)] the “Efficacy in % found” value ([5]; test 6, 50 ppm a.i.) was 26%.
